Starred links: 1 amine or outer side, 2 acyl side, 3 side chain; linkers in the order of their positions; H or OH if unused. Positions of bridges follow the written chain, without caps; N, C: chain ends. Residues, ends and D or L forms follow the SMILES beside them. Chains are numbered I, II in the order given. X2 = C[C@@H]1Cc2ccc3ccccc3c2C1=C1c2cc(C#CCCn3cc(C(=O)[*:1])nn3)ccc2Sc2ccc(C#CCCn3cc(C(=O)[*:2])nn3)cc21
Tests used:
[1] = tested on: PC-3 cells; assay: 24 hours incubation without UV: proliferation and apoptosis (Annexin V, Image Cytometry); format: cell-based, human
Experimental: When PC-3 cells are loaded at 0.5 or 1.0 μM with 9 or 10, washed three times (Method B) or unwashed (Method A) after 24 hours of incubation, the cells visually appear without major signs of toxicity. However, the cells which had been incubated with 9 or 10 over 24 hours were not dividing as prolifically. The cultures appear to be populated ˜25% less in the presence of 9 and 20% of the cells in 10 compared to control untreated cells (FIGS. 12A-E).
In order to further investigate this point, these cells were collected via gentle centrifugation and re-suspended in fresh PBS and analyzed by Image Cytometry. Using Annexin V, these cells were all confirmed to show signs of apoptosis at 93±5%. This is in contrast to the remaining coverslip surface-bound cells that appear healthy.
These latter types of non-apoptotic cells show identical percentage of necrosis acceleration upon subsequent UV-activation of the cell-surface bound nanomachines compared to their shorter incubation time analogues. Thus, it appears that, upon 24 hour incubation, a noticeable amount of cells have nanomachines 9 and 10 either bound to vital cell membrane channels or transport proteins or they are internalized, subsequently shutting down some natural homeostatic mechanisms that leads to programmed cell death (FIGS. 12A-E). Furthermore, this is not the case with shorter incubation times regardless of whether Method A or B is used.

[2] = tested on: PC-3 cells; assay: UV-activated nanomechanical necrosis, live cell confocal microscopy, PC-3; format: cell-based, human; conditions: for Time of Full Necrosis / Time of Initial Necrosis / % acceleration for full necrosis: 355 nm UV; for % acceleration for full necrosis: versus UV upon blank cells
[3] = tested on: CHO cells; assay: UV-activated nanomechanical necrosis, live cell confocal microscopy, CHO; format: cell-based, Chinese hamster; conditions: 355 nm UV; for % acceleration for full necrosis: versus UV upon blank cells
Experimental: Following the synthetic bilipid vesicle experiments, nanomechanical action upon live cells was studied using confocal microscopy aided by a super-resolution technique called Phase Modulation Nanoscopy. Applicants used two experimental methods. In the first method (Method A), the molecular motors were loaded into the cell media and the imaging was initiated within 5 minutes to 24 hours. In the second method, (Method B), the molecular motors were loaded into the cell media, incubated for 30 minutes to 24 hours, and then washed three times with fresh molecular motor-free media before imaging. […]
Microscopy cells were seeded in untreated iBibi 100 μL live cell channels and allowed to grow to 40% to 60% confluence, at 37° C. in 5% CO2. At this stage, the medium was replaced and cells were treated with the studied nanomachines and co-stains as appropriate, with 0.1% DMSO (as detailed above) present in the final imaging medium. For live cell imaging, DMEM/F12 media (10% FBS) lacking phenol red was used from this point onwards. Following incubation, where Method B was used, the channels were washed with live cell imaging media and imaged using a purpose build incubator housing the microscope maintaining 37° C., 5% CO2 and 10% humidity.
All live cell imaging experiments used either NIH 3T3 mouse skin fibroblast cells, PC-3 cells, a grade 3 human prostate adenocarcinoma, or Chinese hamster ovary cells (CHO). These are all well-studied cell lines with discrete morphological compositions. Each molecular machine was used as a stock solution at 0.10 to 1.00 μM with total dimethyl sulfoxide (DMSO) concentrations not exceeding 0.1% in the final cell media in order to avoid unwanted cell membrane permeabilization, the DMSO being required for solubility of the organic nanomachines. All loading experiments are carried out in a light-suppressed manner and the possibility of induced or accelerated uptake due to interaction between the molecular motors and the applied co-stain has been eliminated using a series of individual and reversed loading experiments.
All experimental imaging parameters (i.e., laser beam size, confocal pinhole size, laser intensity, line scanning speed, scanning area (field of view, FOV), and line averaging sequences) were kept constant throughout the experiments. The accuracy and errors associated with the establishment of accelerated necrosis are determined based on one dual channel imaging sequence, which takes 15 seconds in total. This imaging sequence has been carefully established using untreated live cells.
Steady state fluorescence images were recorded using a PhMoNa enhanced Leica SP5 II LSCM equipped with a HCX PL APO 63×/1.40 NA LambdaBlue Oil immersion objective. As an initial control experiment to establish the UV-induced cell toxicity threshold, while mitigating voxel exposure and ensuring sufficient laser dwell time, an imaging sequence has been established to monitor cell morphological and physiological changes as a function of time. All experiments used cell-line-determined culture medium containing 0.1% DMSO.
The applied 100 Hz detection sequence was based on a bidirectional dual-channel continuous scanning method where a minimalistic non-damaging visible laser light (458 nm, 0.2 mW) is used in conjunction with the above detailed UV exposure. This is set as a 2 line/scan accumulation parallel acquisition sequence that is recorded as a function of time. Studied channels correspond to transmission images and UV-induced mitochondrial auto-fluorescence detected at 460 to 550 nm. Applicants further confirmed that the effectiveness of monitoring the UV-activated nanomechanical action on live cells using a conventional CW mercury-arc excitation source equipped with an epi-fluorescence setup consisting of a Zeiss Axiovert 200M inverted microscope, as discussed in FIGS. 18A-C. […]

[4] = tested on: NIH 3T3 cells; assay: UV-activated nanomechanical necrosis, live cell confocal microscopy, NIH 3T3; format: cell-based, mouse; conditions: for Time of Full Necrosis / Time of Initial Necrosis / % acceleration for full necrosis: 355 nm UV; for % acceleration for full necrosis: versus UV upon blank cells
[5] = PC-3, Method B (washed three times)
[6] = NIH 3T3, Method B (washed three times)

`CC(C)[C@H](NC(=O)[C@H](CCCNC(=N)N)NC(=O)[C@@H](NC(=O)[C@H](CC(N)=O)NC(=O)[C@H](CO)NC(=O)c1cn(CCC#Cc2ccc3c(c2)C(=C2c4c(ccc5ccccc45)C[C@H]2C)c2cc(C#CCCn4cc(C(=O)N[C@@H](CO)C(=O)N[C@@H](CC(N)=O)C(=O)N[C@H](C(=O)N[C@@H](CCCNC(=N)N)C(=O)N[C@H](C(=O)N[C@@H](C)C(=O)N5CCC[C@H]5C(=O)O)C(C)C)[C@@H](C)O)nn4)ccc2S3)nn1)[C@@H](C)O)C(=O)N[C@@H](C)C(=O)N1CCC[C@H]1C(=O)O` [Compound 9] (I: SNTRVAP-OH / II: SNTRVAP-OH; linker I:N-II:N via X2) was tested, and the “cultures populated less compared to control untreated cells” value ([1]; PC-3, 0.5 or 1.0 μM, 24 hours of incubation, no UV) was ~25%, the “mobilized cells showing signs of apoptosis (Annexin V)” value ([1]; PC-3, 24 hours incubation, cells collected from culture media) was 93±5% and the “selectivity for targeted PC-3 cells over non-targeted control cells (in words)” value ([2]; NIH 3T3 and CHO as non-targeted controls) was “selectively target the PC-3 cell line over CHO cells”. For the same compound, the “Time of Full Necrosis” value ([2]; PC-3, Method A (no washing)) was 360 s, the “Time of Initial Necrosis” value ([2]; PC-3, Method A (no washing)) was 150 s and the “% acceleration for full necrosis” value ([2]; PC-3, Method A) was 40%. For the same compound, the “Time of Full Necrosis” value [2, 5] was 390 s, the “Time of Initial Necrosis” value [2, 5] was 180 s and the “% acceleration for full necrosis” value ([2]; PC-3, Method B) was 35%. The “accelerated necrosis upon UV-activation after washing and further 24 hours in rotor free media” value ([2]; PC-3, incubated 30 minutes to 4 hours, washed three times, 24 hours rotor free media) was 25%, the “Time of Full Necrosis” value ([3]; Method A (no washing)) was 585 s and the “Time of Initial Necrosis” value ([3]; Method A (no washing)) was 300 s. For the same compound, the “% acceleration for full necrosis” value ([3]; Method A) was 2.5%, the “Time of Full Necrosis” value ([3]; Method B (washed three times)) was 570 s and the “Time of Initial Necrosis” value ([3]; Method B (washed three times)) was 285 s. The “% acceleration for full necrosis” value ([3]; Method B) was 5%, the “Time of Full Necrosis” value ([4]; NIH 3T3, Method A (no washing)) was 570 s and the “Time of Initial Necrosis” value ([4]; NIH 3T3, Method A (no washing)) was 300 s. For the same compound, the “% acceleration for full necrosis” value ([4]; NIH 3T3, Method A) was 5%, the “Time of Full Necrosis” value [4, 6] was 600 s and the “Time of Initial Necrosis” value [4, 6] was 300 s. The “% acceleration for full necrosis” value ([4]; NIH 3T3, Method B) was 0% and the “UV-accelerated nanomechanical necrosis after 24 hours incubation (in words)” value ([4]; NIH 3T3, incubated 24 hours) was “no change in rates”.

From patent publication US11565003B2, “Mechanical opening of lipid bilayers by molecular nanomachines” (William Marsh Rice University, priority 2016, dated 2023)
